The values below are quoted from earlier work in patent US6306435A, “Oral pharmaceutical preparation embedded in an oily matrix and methods of making the same” (Yung Shin Pharmaceutical Industrial Co. Ltd., priority 2000, dated 2001).

Assay in data set [1]: not given
The source holds these as a separate data set.

Where two headings read alike, the source gives them in different places.

Regarding `COc1ccc2[nH]c([S+]([O-])Cc3ncc(C)c(OC)c3C)nc2c1` (centres unmarked) [Omeprazole], the “solubility in alkaline solutions” value (alkaline solutions, as negatively charged ion) was “very soluble”. Besides, the “pKa (pyridinium)” value (pyridinium) was ~ 4. Moreover, the solubility in water entry (water) is “very slightly soluble”. Besides, the “degradation before reaching the small intestine” value in data set [1] (conventional oral dosage form) is given as “more than half”. Further, in data set [1] (moisture, organic solvents and acidic substances), the “effect of moisture, organic solvents and acidic substances on stability” value is recorded as “deleterious effect”. The half-life of degradation was 18 h in data set [1] (pH 6.5); “about 300 days” in data set [1] (pH 11); “less than 10 minutes” in data set [1] (water solutions, pH-values below 4).
